Test results as given in ChEMBL document CHEMBL1148879, “1,4-Dihydroindeno[1,2-c]pyrazoles as potent checkpoint kinase 1 inhibitors: extended exploration on phenyl ring substitutions and preliminary ADME/PK studies” (Bioorg Med Chem Lett, 2007).
pEC50, pIC50: −log10 of the molar value.

How the values were obtained:
HeLa = test: cells; conditions: Homo sapiens
Description: Antiproliferative activity against human HeLa cells by MTS assay

[1] = target: T1, Serine/threonine-protein kinase Chk1 (Homo sapiens, UniProt O14757); test: Inhibition of recombinant CHK-mediated Cdc25C phosphorylation after 30 mins
T1 sequence (O14757 whole entry): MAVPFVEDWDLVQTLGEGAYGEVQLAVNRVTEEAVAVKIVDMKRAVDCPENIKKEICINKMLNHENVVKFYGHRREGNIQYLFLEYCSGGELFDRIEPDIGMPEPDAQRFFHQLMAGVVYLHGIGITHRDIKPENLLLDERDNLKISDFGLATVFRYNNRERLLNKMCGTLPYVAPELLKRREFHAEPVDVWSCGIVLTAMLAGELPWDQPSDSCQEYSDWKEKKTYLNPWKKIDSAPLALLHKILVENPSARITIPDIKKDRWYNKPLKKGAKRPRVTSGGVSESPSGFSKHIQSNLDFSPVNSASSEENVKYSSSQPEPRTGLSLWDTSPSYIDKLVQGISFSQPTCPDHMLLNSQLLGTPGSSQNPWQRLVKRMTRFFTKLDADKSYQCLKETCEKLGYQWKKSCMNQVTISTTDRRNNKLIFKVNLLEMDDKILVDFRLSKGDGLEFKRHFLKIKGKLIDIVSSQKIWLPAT

[2] = Cmax in mouse at 10 mg/kg, po; type: ADME, organism-based; set-up: dose 10 mg/kg, route oral; conditions: in vivo
[3] = AUC in mouse at 10 mg/kg, ip; type: ADME, organism-based; set-up: dose 10 mg/kg, route intraperitoneal; conditions: plasma
[4] = AUC in mouse at 10 mg/kg, po; type: ADME, organism-based; set-up: dose 10 mg/kg, route oral; conditions: plasma
[5] = Half life in mouse at 3 mg/kg, iv; type: ADME, organism-based; set-up: dose 3 mg/kg, route intravenous; conditions: in vivo
Mus musculus = test: (§1) AUC in mouse at 3 mg/kg, iv; type: ADME, organism-based, Plasma; set-up: dose 3 mg/kg, route intravenous; conditions: in vivo
[6] = Cmax in mouse at 10 mg/kg, ip; type: ADME, organism-based; set-up: dose 10 mg/kg, route intraperitoneal; conditions: in vivo
[7] = Volume of distribution in mouse at 3 mg/kg, iv; type: ADME, organism-based; set-up: dose 3 mg/kg, route intravenous; conditions: in vivo, read-out: Vdss
[8] = Oral bioavailability in mouse at 10 mg/kg; type: ADME, organism-based; conditions: in vivo
[9] = Antiproliferative activity against human H1299 cells by FACS assay; type: functional, cell-based; conditions: NCI-H1299
[10] = Metabolic stability in rat liver microsome assessed as […] at 1 uM; type: ADME; conditions: liver microsomes, read-out: Activity (converted)
[11] = Aqueous solubility at neutral pH; type: physicochemical; conditions: buffer
[12] = Metabolic stability in rat liver microsomes assessed as half life at 1 uM; type: ADME, Microsome
[13] = Metabolic stability in rat liver microsomes assessed as compound remaining at 1 uM after 30 mins; type: ADME, Microsome; conditions: read-out: Stability
[14] = Apparent permeability across human Caco-2 cells at 1 uM; type: ADME, cell-based
[15] = as §1; type: ADME, organism-based, Plasma; set-up: dose 3 mg/kg, route intravenous; conditions: plasma
[16] = Plasma clearance in mouse at 3 mg/kg, iv; type: ADME, organism-based; set-up: dose 3 mg/kg, route intravenous

Row | SMILES | pEC50 (HeLa) | pIC50 [1] | pEC50 [9] | also measured
1 | OCc1cccc2c1Cc1c(-c3ccc(-c4ccc(O)cc4)cc3)n[nH]c1-2 | < 4.23 | 8.11 |  | 
2 | COc1cc2c(cc1CN1CCN(C)CC1)Cc1c(-c3ccc(-c4ccc(O)c(F)c4)cc3)n[nH]c1-2 |  | 7.55 |  | Cmax [2]: 80 nM; AUC [3]: 1600 ng·h/mL; AUC [4]: 130 ng·h/mL; half-life [5]: 36 min; AUC (Mus musculus): 690 ng·h/mL; Cmax [6]: 1300 nM; Vd [7]: 9.2 L/kg; bioavailability [8]: 6%
3 | O=C(CN[C@H]1CC[C@H](O)CC1)Nc1ccc2c(c1)Cc1c(-c3ccc(-c4ccc(O)cc4)cc3)n[nH]c1-2 | < 4.23 | 8.92 | < 5.00 | 
4 | COc1cc2c(cc1CN1CCN(C)CC1)Cc1c(-c3ccc(-c4ccc(O)cc4)cc3)n[nH]c1-2 |  | 9.29 |  | 
5 | O=C(CNCc1ccncc1)Nc1ccc2c(c1)Cc1c(-c3ccc(-c4ccc(O)cc4)cc3)n[nH]c1-2 |  | 8.19 |  | 
6 | COc1cc2c(cc1C(=O)N1CCOCC1)Cc1c(-c3ccc(-c4ccc(O)cc4)cc3)n[nH]c1-2 |  | 9.26 |  | 
7 | COc1cc2c(cc1C(=O)N1CCC(O)CC1)Cc1c(-c3ccc(-c4ccc(O)cc4)cc3)n[nH]c1-2 | 5.85 | 9.62 | 5.28 | 
8 | O=C(NCc1ccccn1)c1ccc2c(c1)Cc1c(-c3ccc(-c4ccc(O)cc4)cc3)n[nH]c1-2 | 4.64 |  | < 5.00 | k el at 1 µM [10]: 0.00049 s⁻¹; solubility [11]: < 0.03 µg/mL; half-life at 1 µM [12]: 25 min; Cmax [2]: 250 nM; remaining at 0.5 h, 1 µM [13]: 40%; AUC [3]: 4400 ng·h/mL; AUC [4]: 160 ng·h/mL; half-life [5]: 36 min; AUC (Mus musculus): 1200 ng·h/mL; Papp at 1 µM [14]: 13.3 ×10⁻⁶ cm/s; Cmax [6]: 2000 nM; Vd [7]: 4.7 L/kg; bioavailability [8]: 4%
9 | Oc1ccc(-c2ccc(-c3n[nH]c4c3Cc3ccccc3-4)cc2)cc1 |  | 5.86 |  | 
10 | OCc1ccc2c(c1)Cc1c(-c3ccc(-c4ccc(O)cc4)cc3)n[nH]c1-2 | < 4.23 | 8.11 |  | 
11 | O=C(N[C@H]1CC[C@H](O)CC1)c1cccc2c1Cc1c(-c3ccc(-c4ccc(O)cc4)cc3)n[nH]c1-2 |  | < 5.00 |  | 
12 | Oc1ccc(-c2ccc(-c3[nH]nc4c3Cc3cccc(O)c3-4)cc2)cc1 |  | 6.17 |  | 
13 | OCCNCc1ccc2c(c1)-c1[nH]nc(-c3ccc(-c4ccc(O)cc4)cc3)c1C2 |  | 7.92 |  | 
14 | COc1cc2c(cc1C(=O)N[C@H]1CC[C@H](O)CC1)Cc1c(-c3ccc(-c4ccc(O)cc4)cc3)n[nH]c1-2 | 4.42 | 9.62 | < 5.00 | Cmax [2]: < 100 nM; AUC [3]: 4200 ng·h/mL; half-life [5]: 23.4 min; AUC [15]: 570 ng·h/mL; clearance [16]: 183 mL/min/kg; Cmax [6]: 1500 nM; Vd [7]: 6 L/kg; bioavailability [8]: 0%
15 | O=C(NCc1ccccc1)c1cccc2c1Cc1c(-c3ccc(-c4ccc(O)cc4)cc3)n[nH]c1-2 |  | < 5.00 |  | 
16 | COc1cc2c(cc1C(=O)NCc1ccccn1)Cc1c(-c3ccc(-c4ccc(O)c(C#N)c4)cc3)n[nH]c1-2 |  | 5.04 |  | 
17 | COc1cc2c(cc1CNCCN1CCCC1)Cc1c(-c3ccc(-c4ccc(O)cc4)cc3)n[nH]c1-2 | 6.04 | 9.68 | 5.29 | 
18 | COc1cc2c(cc1CNCCO)Cc1c(-c3ccc(-c4ccc(O)cc4)cc3)n[nH]c1-2 |  | 9.37 |  | 
19 | COc1cc2c(cc1C(=O)N1CCN(C)CC1)Cc1c(-c3ccc(-c4ccc(O)cc4)cc3)n[nH]c1-2 |  | 8.64 |  | 

Row | SMILES | pEC50 (HeLa) | pIC50 [1] | pEC50 [9] | also measured
20 | COc1cc2c(cc1C(=O)NCCN1CCCC1)Cc1c(-c3ccc(-c4ccc(O)cc4)cc3)n[nH]c1-2 |  | 9.08 |  | 
21 | O=C(CNCCO)Nc1ccc2c(c1)Cc1c(-c3ccc(-c4ccc(O)cc4)cc3)n[nH]c1-2 | < 4.23 | 9.13 | < 5.00 | 
22 | CCCCNCC(=O)Nc1ccc2c(c1)Cc1c(-c3ccc(-c4ccc(O)cc4)cc3)n[nH]c1-2 | 5.77 | 8.68 | < 5.00 | 
23 | CC(=O)Nc1cccc2c1Cc1c(-c3ccc(-c4ccc(O)cc4)cc3)n[nH]c1-2 |  | 8.26 |  | 
24 | COc1cc2c(cc1C(=O)N[C@H]1CC[C@H](O)CC1)C(C)(C)c1c(-c3ccc(-c4ccc(O)cc4)cc3)n[nH]c1-2 | 5.07 | 7.74 | < 5.00 | 
25 | COc1cc2c(cc1C(=O)NCc1ccccn1)Cc1c(-c3ccc(-c4ccc(O)c(F)c4)cc3)n[nH]c1-2 |  | 7.57 |  | Cmax [2]: < 50 nM; AUC [3]: 3800 ng·h/mL; half-life [5]: 27.6 min; AUC [15]: 1700 ng·h/mL; clearance [16]: 60 mL/min/kg; Cmax [6]: 2800 nM; Vd [7]: 2.4 L/kg; bioavailability [8]: 0%
26 | O=C(c1ccc2c(c1)-c1[nH]nc(-c3ccc(-c4ccc(O)cc4)cc3)c1C2)N1CCOCC1 |  | 7.04 |  | 
27 | COc1cc2c(cc1CN[C@H]1CC[C@H](O)CC1)Cc1c(-c3ccc(-c4ccc(O)cc4)cc3)n[nH]c1-2 | 6.21 | 9.25 | 5.51 | 
28 | Oc1ccc(-c2ccc(-c3n[nH]c4c3Cc3ccc(CNCCN5CCCC5)cc3-4)cc2)cc1 | 5.55 | 8.15 |  | 
29 | CN(C)CCNCc1ccc2c(c1)-c1[nH]nc(-c3ccc(-c4ccc(O)cc4)cc3)c1C2 | < 4.23 | 8.28 | < 5.00 | 
30 | CC(C)(C)CNCc1cccc2c1Cc1c(-c3ccc(-c4ccc(O)cc4)cc3)n[nH]c1-2 |  | 6.68 |  | 
31 | CC(C)(C)NCc1ccc2c(c1)-c1[nH]nc(-c3ccc(-c4ccc(O)cc4)cc3)c1C2 |  | 7.47 |  | 
32 | CN1CCN(Cc2ccc3c(c2)Cc2c(-c4ccc(-c5ccc(O)cc5)cc4)n[nH]c2-3)CC1 | 5.77 | 7.62 | < 5.00 | solubility [11]: < 0.03 µg/mL; Cmax [2]: 90 nM; AUC [3]: 2700 ng·h/mL; AUC [4]: 450 ng·h/mL; half-life [5]: 30 min; AUC (Mus musculus): 1500 ng·h/mL; Cmax [6]: 1100 nM; Vd [7]: 3.4 L/kg; bioavailability [8]: 9%
33 | OCc1ccc2c(c1)-c1[nH]nc(-c3ccc(-c4ccc(O)cc4)cc3)c1C2 | < 4.23 | 8.36 | < 5.00 | 
34 | Oc1ccc(-c2ccc(-c3n[nH]c4c3Cc3cc(O)ccc3-4)cc2)cc1 |  | 8.36 |  | 
35 | COc1cc2c(cc1CN1CCC(O)CC1)Cc1c(-c3ccc(-c4ccc(O)cc4)cc3)n[nH]c1-2 |  | 8.96 |  | 
36 | COc1cc2c(cc1CN1CCN(C)CC1)Cc1c(-c3ccc(-c4ccc(O)c(C#N)c4)cc3)n[nH]c1-2 |  | < 5.00 |  | 
37 | O=C(NCCO)c1ccc2c(c1)-c1[nH]nc(-c3ccc(-c4ccc(O)cc4)cc3)c1C2 |  | 8.30 |  | 
38 | CNC(=O)c1ccc2c(c1)-c1[nH]nc(-c3ccc(-c4ccc(O)cc4)cc3)c1C2 |  | 8.64 |  | 
